Reference: ChEMBL document CHEMBL6134930, “Discovery of AB801, a Potent and Selective Inhibitor of AXL Receptor Tyrosine Kinase for Use in Cancer Therapy” (J Med Chem, 2025)
Calls of active or inactive are those of the source. The rule behind the calls is not given here.

Experiments:
[1] = Metabolic stability in human hepatocytes assessed as intrinsic clearance measured per 10^6 cells; format: ADME, cell-based, Hepatocyte; details: read-out: CLH
[2] = Terminal half life in CD-1 mouse at 1 mg/kg, iv measured up to 24 hrs by LC-MS/MS analysis; format: ADME, organism-based; details: in vivo, read-out: beta t1/2 (converted)
[3] = Clearance in cynomolgus monkey at 1 mg/kg, iv measured up to 8 hrs by LC-MS/MS analysis; format: ADME, organism-based, Macaca fascicularis; details: in vivo
[4] = AUC (0 to last) in CD-1 mouse at 1 mg/kg, iv measured up to 24 hrs by LC-MS/MS analysis; format: ADME, organism-based; details: in vivo
[5] = Terminal half life in cynomolgus monkey at 1 mg/kg, iv measured up to 8 hrs by LC-MS/MS analysis; format: ADME, organism-based, Macaca fascicularis; details: in vivo, read-out: beta t1/2 (converted)
[6] = AUCinf in Sprague-Dawley rat at 2 mg/kg, po measured up to 8 hrs by LC-MS/MS analysis; format: ADME, organism-based; details: in vivo
[7] = Efflux ratio in human Caco-2 cells; format: ADME, cell-based
[8] = Volume of distribution at steady state in Beagle dog at 1 mg/kg, iv measured up to 8 hrs by LC-MS/MS analysis; format: ADME, organism-based, Canis lupus familiaris; details: in vivo, read-out: Vdss
[9] = Volume of distribution at steady state in CD-1 mouse at 1 mg/kg, iv measured up to 24 hrs by LC-MS/MS analysis; format: ADME, organism-based; details: in vivo, read-out: Vdss
[10] = AUCinfinity in CD-1 mouse at 1 mg/kg, iv measured up to 24 hrs by LC-MS/MS analysis; format: ADME, organism-based; details: in vivo
[11] = Clearance in Sprague-Dawley rat at 1 mg/kg, iv measured up to 8 hrs by LC-MS/MS analysis; format: ADME, organism-based; details: in vivo
[12] = AUC (0 to last) in Sprague-Dawley rat at 1 mg/kg, iv measured up to 8 hrs by LC-MS/MS analysis; format: ADME, organism-based; details: in vivo
[13] = AUCinfinity in cynomolgus monkey at 1 mg/kg, iv measured up to 8 hrs by LC-MS/MS analysis; format: ADME, organism-based, Macaca fascicularis; details: in vivo
[14] = Volume of distribution at steady state in Sprague-Dawley rat at 1 mg/kg, iv measured up to 8 hrs by LC-MS/MS analysis; format: ADME, organism-based; details: in vivo, read-out: Vdss
[15] = Terminal half life in Beagle dog at 1 mg/kg, iv measured up to 8 hrs by LC-MS/MS analysis; format: ADME, organism-based, Canis lupus familiaris; details: in vivo, read-out: beta t1/2 (converted)
[16] = target: T1, Tyrosine-protein kinase receptor UFO (Homo sapiens, UniProt P30530); assay: Binding affinity to AXL (unknown origin) expressed in HEK293 cells transfected with Nano-Luc fusion vector assessed as dissociation constant by measuring decrease in BRET signal preincubated for 1 hr followed by K-5 NanoBRET tracer addition incubated for 2 hrs; format: cell-based
T1 sequence (P30530 whole entry): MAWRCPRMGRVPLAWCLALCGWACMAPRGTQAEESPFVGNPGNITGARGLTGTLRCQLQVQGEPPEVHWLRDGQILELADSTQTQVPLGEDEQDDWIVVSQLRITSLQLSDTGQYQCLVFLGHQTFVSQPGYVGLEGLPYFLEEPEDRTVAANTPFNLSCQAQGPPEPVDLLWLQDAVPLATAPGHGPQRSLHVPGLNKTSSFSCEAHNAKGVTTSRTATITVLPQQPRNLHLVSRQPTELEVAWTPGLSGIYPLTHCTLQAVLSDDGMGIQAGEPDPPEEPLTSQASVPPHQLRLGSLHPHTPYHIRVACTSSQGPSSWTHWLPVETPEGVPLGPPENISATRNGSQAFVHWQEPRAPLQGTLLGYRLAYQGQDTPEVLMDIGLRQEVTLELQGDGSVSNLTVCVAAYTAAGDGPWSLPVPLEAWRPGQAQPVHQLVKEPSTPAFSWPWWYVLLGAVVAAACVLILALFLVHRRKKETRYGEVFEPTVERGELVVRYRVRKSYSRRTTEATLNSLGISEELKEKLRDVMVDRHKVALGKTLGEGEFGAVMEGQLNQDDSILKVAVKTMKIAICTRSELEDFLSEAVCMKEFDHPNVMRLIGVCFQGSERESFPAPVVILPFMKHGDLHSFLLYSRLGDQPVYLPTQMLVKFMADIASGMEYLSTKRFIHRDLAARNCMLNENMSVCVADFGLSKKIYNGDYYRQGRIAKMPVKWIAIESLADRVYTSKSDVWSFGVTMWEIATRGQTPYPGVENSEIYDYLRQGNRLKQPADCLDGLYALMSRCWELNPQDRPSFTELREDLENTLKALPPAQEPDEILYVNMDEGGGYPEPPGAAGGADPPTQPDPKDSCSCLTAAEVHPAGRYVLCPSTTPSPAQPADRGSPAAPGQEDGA

[17] = AUCinfinity in Sprague-Dawley rat at 1 mg/kg, iv measured up to 8 hrs by LC-MS/MS analysis; format: ADME, organism-based; details: in vivo
[18] = Metabolic stability in rat hepatocytes assessed as intrinsic clearance measured per 10^6 cells; format: ADME, cell-based, Hepatocyte; details: read-out: CLH
[19] = AUC (0 to last) in cynomolgus monkey at 1 mg/kg, iv measured up to 8 hrs by LC-MS/MS analysis; format: ADME, organism-based, Macaca fascicularis; details: in vivo
[20] = AUC (0 to last) in Beagle dog at 1 mg/kg, iv measured up to 8 hrs by LC-MS/MS analysis; format: ADME, organism-based, Canis lupus familiaris; details: in vivo
[21] = Terminal half life in Sprague-Dawley rat at 1 mg/kg, iv measured up to 8 hrs by LC-MS/MS analysis; format: ADME, organism-based; details: in vivo, read-out: beta t1/2 (converted)
[22] = AUCinfinity in Beagle dog at 1 mg/kg, iv measured up to 8 hrs by LC-MS/MS analysis; format: ADME, organism-based, Canis lupus familiaris; details: in vivo
[23] = Clearance in CD-1 mouse at 1 mg/kg, iv measured up to 24 hrs by LC-MS/MS analysis; format: ADME, organism-based; details: in vivo
[24] = Clearance in Beagle dog at 1 mg/kg, iv measured up to 8 hrs by LC-MS/MS analysis; format: ADME, organism-based, Canis lupus familiaris; details: in vivo
[25] = Volume of distribution at steady state in cynomolgus monkey at 1 mg/kg, iv measured up to 8 hrs by LC-MS/MS analysis; format: ADME, organism-based, Macaca fascicularis; details: in vivo, read-out: Vdss
[26] = target: T1, Tyrosine-protein kinase receptor UFO; assay: Inhibition of human AXL measured after 150 mins by ATP-competitive HTRF based biochemical assay
786-0 = assay: Anti-tumor activity against human 786-0 cells xenografted in mouse model assessed as tumor growth inhibition at 40 mg/kg, po once daily for 15 days; format: functional, organism-based; details: time 15.0 day

## CN(C)C(=O)c1ccc(-c2n[nH]c3ncc(-c4ccc5c(c4)CC[C@@H](N4C6COCC4C6)CC5)cc23)cc1
[1]
  hepatocyte CLint: 4.6 µL/min/1e6 cells
[2]
  half-life: 8.1 h
[3]
  clearance: 76.7 mL/min/kg
[4]
  AUC(0-t) at 24 h: 13 ng·h/mL
[5]
  half-life: 2.3 h
[6]
  AUC(0-inf): 4300 ng·h/mL
[7]
  efflux ratio: 11
[8]
  Vd: 8.1 L/kg
[9]
  Vd: 3.2 L/kg
[10]
  AUC(0-inf): 430 ng·h/mL
[11]
  clearance: 2.67 mL/min/kg
[12]
  AUC(0-t) at 8 h: 6100 ng·h/mL
[13]
  AUC(0-inf): 230 ng·h/mL
[14]
  Vd: 0.34 L/kg
[15]
  half-life: 3.8 h
[16]
  Kd: 6.8 nM
[17]
  AUC(0-inf): 6400 ng·h/mL
[18]
  hepatocyte CLint: 20 µL/min/1e6 cells
[19]
  AUC(0-t) at 8 h: 210 ng·h/mL
[20]
  AUC(0-t) at 8 h: 540 ng·h/mL
[21]
  half-life: 2.2 h
[22]
  AUC(0-inf): 560 ng·h/mL
[23]
  clearance: 38.3 mL/min/kg
[24]
  clearance: 33.3 mL/min/kg
[25]
  Vd: 13 L/kg
[26]
  IC50: 5.3 nM

## CCN(CC)CCNC(=O)c1c(C)[nH]c(/C=C2\C(=O)Nc3ccc(F)cc32)c1C
786-0
  Activity: inactive
